The values below come from patent US12044651B2, “Sensor device and methods” (SCENTIAN BIO LIMITED, priority 2016, dated 2024).

SMILES strings stand for the structures. Read-outs that look alike come from different tables or passages of the source. Marks after values point to notes of the source that are not given here.

The term EC50 denotes the midpoint of the concentration-response curve.

The test system of one test is MsiOR1/Orco. Particulars: cited from earlier work.
For test [1], the system named is EpOR3/Orco. Particulars: ref 19; cited from earlier work.
The target of another test is DmOr22a/Orco (Drosophila melanogaster, UniProt P81909). Particulars: cited from earlier work.
Another test concerns the target T1, AgOR1/Orco (Anopheles gambiae, UniProt Q8WTE7).
T1 construct: host or cells: Xenopus oocytes
Conditions: ref 33; cited from earlier work.

In the next test the test system is HVOR13/Orco. Particulars: ref 31; cited from earlier work.
For the next test, the system named is PxOR1/Orco. Conditions: cited from earlier work.
In test [2] the test system is EpOR3/Orco. Particulars: estimated visually from graph; cited from earlier work.
For a further test, the system named is ECB (Z) OR3/Orco. Particulars: ref 2; cited from earlier work.
A further test concerns the target T2, AgOR2/Orco (Anopheles gambiae, UniProt Q8WTE6).
T2 construct: host or cells: Xenopus oocytes
Particulars: ref 33; cited from earlier work.

In the next test the test system is AgOr10/Orco. Conditions: ref 33; cited from earlier work.
Test [3] deals with T3, OR71a (Drosophila melanogaster, UniProt Q9VUK5).
T3 sequence (Q9VUK5 1-378): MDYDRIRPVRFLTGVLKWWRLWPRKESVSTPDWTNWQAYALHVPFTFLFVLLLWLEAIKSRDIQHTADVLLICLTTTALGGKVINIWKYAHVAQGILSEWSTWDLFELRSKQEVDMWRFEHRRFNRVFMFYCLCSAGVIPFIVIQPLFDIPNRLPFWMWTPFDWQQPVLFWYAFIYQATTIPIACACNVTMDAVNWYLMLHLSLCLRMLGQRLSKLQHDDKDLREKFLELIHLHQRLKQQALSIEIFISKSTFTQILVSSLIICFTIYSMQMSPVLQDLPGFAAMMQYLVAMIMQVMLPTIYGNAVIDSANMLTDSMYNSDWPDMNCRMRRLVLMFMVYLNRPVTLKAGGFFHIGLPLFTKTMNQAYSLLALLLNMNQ
Put plainly: EIS sensor, Or71a liposomes on gold electrode, optimized conditions (Example 5). In kind it is binding. Particulars: EIS.

The target of test [4] is T3, OR71a. Put plainly: CNT-FET sensor covalently functionalized with Or71a nanodiscs (Example 3). In kind it is binding. As for the experimental part: The dispersion was sonicated until a clear solution was obtained. The temperature was kept at 25° C. throughout the sonication process. The thiolpyridine solution was prepared by dissolving 10 mg of 2-Mercaptopyridine (99%, Sigma Aldrich) in 1 ml of methanol. The solution was spun coated on a polydimethylsiloxane (PDMS) surface at 2000 rpm for one minute. Before the spin coating process, the PDMS surface was cleaned by a 50 W Oxygen plasma for 1 minute to improve the wettability. The cleaned substrates were placed upside down on the PDMS surface for three minutes and washed in ethanol to remove the excess thiolpyridine molecules. Then the substrates were transferred into the CNT suspension and immersed into the suspension for 10 minutes. The samples were removed from the suspension and dipped into Ethanol for another 10 minutes to remove the thiolpyridine molecules in the SWNT network. The alignment markers were deposited by defining the markers by photolithography and thermal evaporation of 5 nm Chromium and 50 nm of Gold. The metal Lift off was done by acetone immersion for 15 minutes followed by an Isopropyl alcohol (IPA) wash and N2 blow dry. The result is a uniform thin film CNT network covering the entire substrate surface. The purification procedure is a variation on the one detailed in […] et al. 2013^14. […] Purity was assessed on Coomassie stained SDS-PAGE gels and Western blotting. […]

Another test relates to ApolOR1/Orco. Conditions: +ApolPBP2; estimated visually from graph; cited from earlier work.
In another test the test system is AgOr48/Orco. Particulars: given as Log, cited from earlier work.
Another test relates to DiOR1/Orco. Particulars: cited from earlier work.
Test [5] has as its system BmOR3/Orco. Particulars: ref 13; cited from earlier work.
Test [6] relates to BmOR3/Orco. Conditions: cited from earlier work.
The subject of another test is AgOR8/Orco. Conditions: ref 33; cited from earlier work.
The test system of another test is BmOR1/Ocro. Conditions: ref 13; cited from earlier work.
Test [7] relates to BmOR1/Orco. Particulars: cited from earlier work.
In test [8] the test system is BmOr1/Orco. Conditions: cited from earlier work.
Another test deals with EpOR1/Orco. Conditions: cited from earlier work.
The next test relates to BdorOBP2. Conditions: ref 39; cited from earlier work.
The test system of another test is HVOR6/Orco. Conditions: ref 31; cited from earlier work.
Test [9] relates to AgOr65/Orco. Particulars: given as Log, cited from earlier work.
Test [10] relates to AgOr65/Orco. Particulars: ref 33; cited from earlier work.
Another test relates to BmOr47/Orco. Particulars: cited from earlier work.
In another test the test system is BmOr45/Orco. Conditions: cited from earlier work.
The test system of the next test is SexiOR16/Orco. Conditions: ref 26; cited from earlier work.
In another test the target is DOr85b/Orco (Drosophila melanogaster, UniProt Q9VHQ7). Particulars: cited from earlier work.
A further test relates to OBP proteins. Conditions: ref 41; cited from earlier work.
The next test relates to OscaOR1/Orco. Particulars: cited from earlier work.
A further test relates to OnOr1/Orco. Particulars: ref 32; cited from earlier work.
A further test has as its system SexiOR13/Orco. Particulars: ref 26; cited from earlier work.
For another test, the system named is BmOr19/Orco. Conditions: cited from earlier work.

Sequence of DOr85b/Orco (Q9VHQ7 whole entry): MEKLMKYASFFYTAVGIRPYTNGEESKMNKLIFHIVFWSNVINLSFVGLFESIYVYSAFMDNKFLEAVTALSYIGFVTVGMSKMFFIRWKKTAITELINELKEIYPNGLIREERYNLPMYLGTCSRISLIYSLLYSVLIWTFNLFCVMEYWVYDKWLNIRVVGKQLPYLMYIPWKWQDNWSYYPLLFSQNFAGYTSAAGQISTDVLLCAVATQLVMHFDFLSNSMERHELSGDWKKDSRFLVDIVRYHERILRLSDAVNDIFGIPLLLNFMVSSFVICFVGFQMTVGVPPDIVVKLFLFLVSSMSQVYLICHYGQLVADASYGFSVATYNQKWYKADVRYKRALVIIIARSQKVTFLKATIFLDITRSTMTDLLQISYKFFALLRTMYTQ
Sequence of DOr85b/Orco (Q9VNB5 whole entry partner): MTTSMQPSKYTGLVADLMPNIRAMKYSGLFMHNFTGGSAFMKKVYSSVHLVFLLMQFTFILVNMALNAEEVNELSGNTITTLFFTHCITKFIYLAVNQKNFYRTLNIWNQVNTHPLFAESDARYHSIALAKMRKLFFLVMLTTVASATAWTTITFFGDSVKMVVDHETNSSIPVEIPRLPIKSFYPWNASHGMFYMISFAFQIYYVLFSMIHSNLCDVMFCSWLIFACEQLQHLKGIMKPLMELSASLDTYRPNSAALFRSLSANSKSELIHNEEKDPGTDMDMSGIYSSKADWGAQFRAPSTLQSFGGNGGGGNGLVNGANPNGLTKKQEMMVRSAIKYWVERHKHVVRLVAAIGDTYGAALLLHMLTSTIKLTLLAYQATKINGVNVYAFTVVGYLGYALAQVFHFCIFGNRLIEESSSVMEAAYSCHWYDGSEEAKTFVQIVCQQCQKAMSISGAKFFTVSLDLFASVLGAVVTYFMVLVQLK
Sequence of DmOr22a/Orco (P81909 whole entry): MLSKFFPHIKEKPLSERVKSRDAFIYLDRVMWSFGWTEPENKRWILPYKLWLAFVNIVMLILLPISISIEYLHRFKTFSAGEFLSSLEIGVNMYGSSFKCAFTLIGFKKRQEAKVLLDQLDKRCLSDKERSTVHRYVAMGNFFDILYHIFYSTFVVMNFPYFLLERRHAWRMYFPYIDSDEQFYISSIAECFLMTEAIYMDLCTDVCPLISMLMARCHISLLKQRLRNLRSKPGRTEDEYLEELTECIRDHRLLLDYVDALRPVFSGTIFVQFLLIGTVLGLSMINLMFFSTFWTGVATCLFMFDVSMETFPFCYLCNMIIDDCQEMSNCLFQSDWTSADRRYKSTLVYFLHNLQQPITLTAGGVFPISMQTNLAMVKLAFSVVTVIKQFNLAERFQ
T2 sequence (Q8WTE6 whole entry): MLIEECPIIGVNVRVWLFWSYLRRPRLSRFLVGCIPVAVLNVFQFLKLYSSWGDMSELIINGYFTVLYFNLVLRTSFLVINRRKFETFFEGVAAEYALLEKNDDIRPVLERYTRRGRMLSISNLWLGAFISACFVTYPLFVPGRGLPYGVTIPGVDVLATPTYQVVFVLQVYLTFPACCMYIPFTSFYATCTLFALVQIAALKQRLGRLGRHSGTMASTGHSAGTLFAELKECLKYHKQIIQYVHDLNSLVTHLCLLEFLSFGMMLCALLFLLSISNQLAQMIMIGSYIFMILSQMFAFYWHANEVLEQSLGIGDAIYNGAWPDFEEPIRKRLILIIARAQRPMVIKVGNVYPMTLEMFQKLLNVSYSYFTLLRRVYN
T2 sequence (Q7QCC7 whole entry partner): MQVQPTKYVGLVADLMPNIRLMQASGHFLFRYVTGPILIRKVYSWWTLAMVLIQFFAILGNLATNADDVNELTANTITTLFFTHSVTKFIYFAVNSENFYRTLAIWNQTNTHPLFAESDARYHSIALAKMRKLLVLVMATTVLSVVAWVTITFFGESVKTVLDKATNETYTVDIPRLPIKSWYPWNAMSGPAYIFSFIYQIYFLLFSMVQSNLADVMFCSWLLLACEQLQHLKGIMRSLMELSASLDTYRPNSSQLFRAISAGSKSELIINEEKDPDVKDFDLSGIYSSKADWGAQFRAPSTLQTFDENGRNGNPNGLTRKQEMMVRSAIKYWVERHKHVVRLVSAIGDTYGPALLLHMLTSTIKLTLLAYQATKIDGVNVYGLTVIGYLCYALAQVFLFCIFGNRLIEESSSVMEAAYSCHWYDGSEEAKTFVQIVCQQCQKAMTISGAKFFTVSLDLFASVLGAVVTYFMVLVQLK
T1 sequence (Q8WTE7 whole entry): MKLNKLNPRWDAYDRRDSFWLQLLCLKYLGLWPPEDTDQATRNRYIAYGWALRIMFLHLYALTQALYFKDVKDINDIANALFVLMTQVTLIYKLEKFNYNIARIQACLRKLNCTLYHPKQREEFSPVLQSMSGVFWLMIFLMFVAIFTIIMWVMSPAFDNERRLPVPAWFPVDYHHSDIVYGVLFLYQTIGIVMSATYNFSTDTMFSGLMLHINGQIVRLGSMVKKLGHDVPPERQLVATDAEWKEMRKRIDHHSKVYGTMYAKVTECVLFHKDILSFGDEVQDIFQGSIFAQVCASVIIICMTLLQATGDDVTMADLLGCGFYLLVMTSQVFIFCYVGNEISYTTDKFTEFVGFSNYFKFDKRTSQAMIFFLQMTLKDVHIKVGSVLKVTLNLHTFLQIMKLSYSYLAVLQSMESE
T1 sequence (Q7QCC7 whole entry partner): as the sequence (Q7QCC7 whole entry partner) above

For the compound `CCCC/C=C\CCCCCCCCCCOC(C)=O` [Z11-16:Ac], in the test on MsiOR1/Orco (estimated visually from graph), the Sensitivity limit was 10^−7 M*. In addition, in the test with MsiOR1/Orco (ref 28), the EC50 was 1000 nM.

On to `CC(=O)OC/C=C(\C)CCC=C(C)C` [geranyl acetate], for which the EC50 in the test with EpOR3/Orco [1] is 1000 nM.

For `CCCC(=O)OCC` [ethyl butyrate], the Sensitivity limit on DmOr22a/Orco (estimated visually from graph) was 10^−12 M*. For the same compound, the EC50 at DmOr22a/Orco (ref 3) is 0.0158 nM.

As for `Cc1ccc(O)cc1` [4-methylphenol], on AgOR1/Orco, the EC50 is 412 nM.

Consider `CCCC/C=C\CCCCCCCCCC=O` [Z11-16:Ald], for which the EC50 is 979 nM with HVOR13/Orco and 2520 nM in the test on PxOR1/Orco (ref 12). The Sensitivity limit in the test on PxOR1/Orco (estimated visually from graph) is on record as 10^−8 − 10^−6 M*.

`CC(C)=CCCC(C)=CC=O` [Citral]: the Sensitivity limit with EpOR3/Orco [2] is 10^−15 M*.

As for `CC/C=C/CCCCCCCCCCOC(C)=O` [E11 pheromone], in the test on ECB (Z) OR3/Orco, the EC50 is 12.5 nM and the Sensitivity limit is recorded as 10^−9 M^.

Take `c1ccc2[nH]ccc2c1` [indole]: the figures for the EC50 on AgOR2/Orco and with AgOr10/Orco were 16.7 nM and 137 nM, respectively.

The compound `CCc1ccc(OC)c(O)c1` [4-ethyl guaiacol] came in with an LOD at OR71a [3] of 0.1 fM. Moreover, the limit of detection result at OR71a [4] (nanodiscs 1:100 dilution) is “below 1 fM”. Besides, the “concentration at which clear electronic response starts” value at OR71a [4] (real time current measurement mode) turned out to be 1 fM.

For `CCCC/C=C\CCC/C=C/CCCCC=O` [(E,Z) -6,11-hexadecadienal], the Sensitivity limit in the test on ApolOR1/Orco is listed as 10^−15 M*.

On to `CCCCCCCCC1CCC(=O)O1` (stereo not shown) [g-dodecalactone], for which the “Ec50 (Log)” value in the test with AgOr48/Orco is listed as “Log = −7.01”. The “Sensitivity limit (Log)” value in the test with AgOr48/Orco (ref 25, estimated visually from graph) is on record as “Log = −8*”.

For the compound `CCCC/C=C/CCCCCCCCCC=O` [EII-16:Ald], the Sensitivity limit with DiOR1/Orco (estimated visually from graph) is 10^−7 M*. For the same compound, the EC50 in the test on DiOR1/Orco (ref 28) is 1000 nM.

Turning to `CCC/C=C\C=C\CCCCCCCCC=O` [Bombykal], the EC50 in the test on BmOR3/Orco [5] was 2030 nM; in the test with BmOR3/Orco [6] (ref 12), 380 nM. For the same compound, the Sensitivity limit in the test on BmOR3/Orco [5] is 300 nM; in the test with BmOR3/Orco [6] (estimated visually from graph) it was 10^−8 − 10^−6 M*.

Regarding `C=CC(O)CCCCC` (stereo not shown) [1-octen-3-ol], the EC50 in the test on AgOR8/Orco is 186 nM.

Take `CCC/C=C\C=C\CCCCCCCCCO` [Bombykol]: the EC50 in the test with BmOR1/Ocro is 4390 nM; with BmOR1/Orco [7] (ref 12) it was 250 nM; in the test on BmOr1/Orco [8] (ref 29), 34000 nM; in the test with BmOr1/Orco [8] (ref 30) it was 5900 nM. For the same compound, the results for the Sensitivity limit with BmOR1/Ocro and in the test on BmOR1/Orco [7] (estimated visually from graph) were 1000 nM and 10^−8 − 10^−6 M*, respectively.

On to `CC(C)=CCC/C(C)=C/CO` [geraniol], for which the Sensitivity limit in the test with EpOR1/Orco (estimated visually from graph) is listed as 10^−14 M*. Moreover, the EC50 in the test on EpOR1/Orco (ref 17) is 0.0018 nM. Also, the detection limit in the test on BdorOBP2 is on record as ~10^−6 M.

On to `CCCC/C=C\CCCCCCCC=O` [Z9-14:ald], for which the EC50 in the test on HVOR6/Orco is 979 nM.

With `C=CCc1ccc(O)c(OC)c1` [eugenol], the “Ec50 (Log)” value in the test on AgOr65/Orco [9] is “Log = −6.54”. In the test with AgOr65/Orco [9] (ref 23, estimated visually from graph), the “Sensitivity limit (Log)” value is on record as “Log = −7*”. Also, the EC50 in the test on AgOr65/Orco [10] is 34.4 nM.

For the compound `O=C(O)c1ccccc1` [benzoic acid], the Sensitivity limit with BmOr47/Orco (estimated visually from graph) was 10^−14 M*; with BmOr45/Orco (estimated visually from graph), 10^−11 M*. For the same compound, the EC50 in the test on BmOr47/Orco (ref 18) is 0.0142 nM; with BmOr45/Orco (ref 18) it was 0.144 nM.

In the case of `CCCC/C=C\CCCCCCCCO` [Z9-14:OH], the EC50 with SexiOR16/Orco was 969 nM.

As for `CCCCCC(C)=O` [2-heptanone], the Sensitivity limit at DOr85b/Orco (estimated visually from graph) is 10^−8 − 10^−6 M*. For the same compound, the EC50 at DOr85b/Orco (ref 12) is 45600 nM. In the test with OBP proteins, the “concentration that could be detected” value was 0.018 M.

On to `CC/C=C/CCCCCCCCCCO` [E11-14:OH], for which the Sensitivity limit with OscaOR1/Orco (estimated visually from graph) is 10^−7 M*. In the test with OscaOR1/Orco (ref 27), the EC50 was 1000 nM.

`C/C=C/CCCCCCCCCCCOC(C)=O` [E12-14:OAc]: the EC50 in the test on OnOr1/Orco was 260 nM.

In the case of `C/C=C/C/C=C\CCCCCCCCOC(C)=O` [Z9, E12-14:OAc], the EC50 with SexiOR13/Orco was 3160 nM.

For `C=CC(C)(O)CCC=C(C)C` (stereo not shown) [linalool], in the test with BmOr19/Orco (estimated visually from graph), the Sensitivity limit is recorded as 10^−10 M*. Besides, in the test on BmOr19/Orco (ref 18), the EC50 is 4.69 nM. In the test with BdorOBP2, the detection limit is ~10^−6 M.
